Source: US20240199623A1 (ILDONG PHARMACEUTICAL CO., LTD., priority 2020, published 2024)

Target: human wild type-CFTR (Homo sapiens, UniProt P13569)
Experiment: Cell-based YFP assay
Design: expressed in transfected cells; host or cells: CHO-K1 (Chinese hamster ovary)
Conditions: CHO-K1 cells expressing human wild type-CFTR and YFP-H148Q/I152L; forskolin 20 μM = 100% activity; read-out: Cell-based YFP Assay (EC50) Concentration Range
Outline: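 CHO-K1 cells co-expressing human wild-type CFTR and YFP-H148Q/I152L halide sensor, grown 48 h at 37 °C, then in PBS. YFP quenching by I⁻ influx read at 37 °C after adding 140 mM I⁻ solution, sampled every 0.4 s for 14 s. Triplicates averaged; EC50 fitted.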

Sequence of human wild type-CFTR (P13569 whole entry): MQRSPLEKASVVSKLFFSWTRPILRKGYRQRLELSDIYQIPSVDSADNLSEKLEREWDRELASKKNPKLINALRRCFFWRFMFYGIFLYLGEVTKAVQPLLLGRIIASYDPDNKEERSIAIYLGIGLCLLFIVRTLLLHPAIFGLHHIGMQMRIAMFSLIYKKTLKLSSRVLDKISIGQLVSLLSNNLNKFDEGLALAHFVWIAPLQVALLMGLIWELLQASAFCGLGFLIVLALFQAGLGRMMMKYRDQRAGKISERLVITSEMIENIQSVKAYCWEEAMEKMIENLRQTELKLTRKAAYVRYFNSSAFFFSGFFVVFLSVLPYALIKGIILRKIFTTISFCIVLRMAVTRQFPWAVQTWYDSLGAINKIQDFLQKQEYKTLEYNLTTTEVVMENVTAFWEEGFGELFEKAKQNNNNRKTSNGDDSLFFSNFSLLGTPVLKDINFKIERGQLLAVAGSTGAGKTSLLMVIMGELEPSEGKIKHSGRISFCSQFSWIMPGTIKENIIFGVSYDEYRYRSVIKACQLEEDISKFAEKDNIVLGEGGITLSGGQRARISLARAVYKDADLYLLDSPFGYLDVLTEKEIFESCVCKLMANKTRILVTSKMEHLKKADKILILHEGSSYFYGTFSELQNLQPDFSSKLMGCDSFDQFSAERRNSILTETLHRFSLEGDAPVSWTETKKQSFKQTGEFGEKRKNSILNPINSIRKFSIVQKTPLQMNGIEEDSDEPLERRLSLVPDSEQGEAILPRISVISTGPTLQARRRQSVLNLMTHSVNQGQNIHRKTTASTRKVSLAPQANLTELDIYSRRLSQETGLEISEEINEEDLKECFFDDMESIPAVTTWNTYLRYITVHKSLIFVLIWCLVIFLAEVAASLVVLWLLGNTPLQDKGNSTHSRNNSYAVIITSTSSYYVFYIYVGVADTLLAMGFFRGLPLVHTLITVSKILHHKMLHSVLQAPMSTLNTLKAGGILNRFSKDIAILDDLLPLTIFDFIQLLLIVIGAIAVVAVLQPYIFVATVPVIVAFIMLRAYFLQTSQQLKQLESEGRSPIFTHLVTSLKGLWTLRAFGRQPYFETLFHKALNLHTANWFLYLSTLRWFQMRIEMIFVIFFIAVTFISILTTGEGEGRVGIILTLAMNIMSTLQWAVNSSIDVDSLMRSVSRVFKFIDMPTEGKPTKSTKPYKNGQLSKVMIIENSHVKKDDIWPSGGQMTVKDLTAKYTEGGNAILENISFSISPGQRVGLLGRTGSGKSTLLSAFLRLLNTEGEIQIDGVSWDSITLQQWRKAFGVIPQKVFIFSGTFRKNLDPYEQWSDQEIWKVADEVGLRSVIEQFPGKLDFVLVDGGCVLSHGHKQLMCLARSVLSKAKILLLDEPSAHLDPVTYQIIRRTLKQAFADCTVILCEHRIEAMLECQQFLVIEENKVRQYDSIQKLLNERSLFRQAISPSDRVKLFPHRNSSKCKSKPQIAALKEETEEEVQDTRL

Structure (SMILES) | EC50 [nM]
COc1ccc(-c2ccnc3cc(C(=O)N4CCN(C(=O)c5ccccc5)CC4)nn23)cc1OC [Compound 209, (4-benzoylpiperazin-1-yl)(7-(3,4-dimethoxyphenyl)pyrazolo [1,5-a]pyrimidin-2-yl)methanone] | < 200
CCCCOC(=O)[C@H]1CC[C@H](NC(=O)c2cc3nccc(-c4ccc(OC)c(OC)c4)n3n2)CC1 [Compound 332, butyl (1r,4r)-4-(7-(3,4-dimethoxyphenyl)pyrazolo [1,5-a]pyrimidine-2-carboxamido)cyclohexane-1-carboxylate] | 200 to 2000
COC(=O)C[C@H](NC(=O)c1ccc(NC(=O)c2cc3nccc(-c4ccc(OC)c(OC)c4)n3n2)cc1)C(=O)OC [Compound 60, dimethyl (4-(7-(3,4-dimethoxyphenyl)pyrazolo [1,5-a]pyrimidine-2-carboxamido)benzoyl)-L-aspartate] | < 200
CC[C@H]1CN(C(=O)c2cc3nccc(-c4ccc(OC)c(OC)c4)n3n2)CCN1C(=O)c1ccccc1 [Compound 375, (S)-(4-benzoyl-3-ethylpiperazin-1-yl)(7-(3,4-dimethoxyphenyl)pyrazolo [1,5-a]pyrimidin-2-yl)methanone] | < 200
COc1ccc(-c2ccnc3cc(C(=O)NC4CCN(C[C@@H](O)CO)CC4)nn23)cc1OC [Compound 103, (R)-N-(1-(2,3-dihydroxypropyl)piperidin-4-yl)-7-(3,4-dimethoxyphenyl) pyrazolo[1,5-a]pyrimidine-2-carboxamide] | ≥ 2000
COc1ccc(-c2ccnc3cc(C(=O)N(C)c4ccc(C(=O)O)cc4)nn23)cc1OC [Compound 234, 4-(7-(3,4-dimethoxyphenyl)-N-methylpyrazolo[1,5-a]pyrimidine-2-carboxamido)benzoic acid] | ≥ 2000
COc1ccc(-c2ccnc3cc(C(=O)Nc4ccc(C(=O)OCCN5CCOCC5)cn4)nn23)cc1OC [Compound 242, 2-morpholinoethyl 6-(7-(3,4-dimethoxyphenyl)pyrazolo [1,5-a]pyrimidine-2-carboxamido)nicotinate] | < 200
COC(=O)[C@@H](C)NC(=O)c1ccc(NC(=O)c2cc3nccc(-c4ccc(OC)c(OC)c4)n3n2)cc1 [Compound 64, methyl (4-(7-(3,4-dimethoxyphenyl)pyrazolo[1,5-a]pyrimidine-2-carboxamido)benzoyl)-D-alaninate] | < 200
COC(=O)c1ccc(NC(=O)c2cc3nccc(-c4cccc(OC)c4)n3n2)cc1 [Compound 25, methyl 4-(7-(3-methoxyphenyl)pyrazolo [1,5-a]pyrimidine-2-carboxamido) benzoate] | ≥ 2000
COc1ccc(-c2ccnc3cc(C(=O)N4CCN[C@@H](C)C4)nn23)cc1OC [Compound 181, (S)-(7-(3,4-dimethoxyphenyl)pyrazolo[1,5-a]pyrimidin-2-yl)(3-methylpiperazin-1-yl)methanone] | ≥ 2000
CCCOC(=O)[C@H]1CC[C@H](NC(=O)c2cc3nccc(-c4ccc(OC)c(OC)c4)n3n2)CC1 [Compound 331, propyl (1R,4R)-4-(7-(3,4-dimethoxyphenyl)pyrazolo [1,5-a]pyrimidine-2-carboxamido)cyclohexane-1-carboxylate] | 200 to 2000
COc1ccc(-c2ccnc3cc(C(=O)N4C[C@H](C)NC[C@H]4C)nn23)cc1OC [Compound 360, (7-(3,4-dimethoxyphenyl)pyrazolo[1,5-a]pyrimidin-2-yl) ((2R,5S)-2,5-dimethylpiperazin-1-yl)methanone] | 200 to 2000
COc1ccc(-c2ccnc3cc(C(=O)N4CCNC(C)(C)C4)nn23)cc1OC [Compound 182, (7-(3,4-dimethoxyphenyl)pyrazolo[1,5-a]pyrimidin-2-yl)(3,3-dimethylpiperazin-1-yl)methanone] | ≥ 2000
COc1ccc(-c2ccnc3cc(C(=O)Nc4ccc(NC(=O)CN(C)C)cc4)nn23)cc1OC [Compound 258, 7-(3,4-dimethoxyphenyl)-N-(4-(2-(dimethylamino)acetamido)phenyl)pyrazolo[1,5-a]pyrimidine-2-carboxamide] | < 200
COc1ccc(-c2ccnc3cc(C(=O)N[C@H]4CC[C@H](C(=O)NC5CCN(C6CCOCC6)CC5)CC4)nn23)cc1OC [Compound 340, 7-(3,4-dimethoxyphenyl)-N-((1R,4R)-4-((1-(tetrahydro-2H-pyran-4-yl)piperidin-4-yl)carbamoyl)cyclohexyl) pyrazolo[1,5-a] pyrimidine-2-carboxamide] | ≥ 2000
CCCCCCCCCCOC(=O)c1ccc(NC(=O)c2cc3nccc(-c4ccc(OC)c(OC)c4)n3n2)cc1 [Compound 337, decyl 4-(7-(3,4-dimethoxy-phenyl)pyrazolo[1,5-a]pyrimidine-2-carboxamido)benzoate] | ≥ 2000
COc1ccc(-c2ccnc3cc(C(=O)N4CC(C)NC(C)C4)nn23)cc1OC (stereo not drawn) [Compound 347, (7-(3,4-dimethoxyphenyl)pyrazolo[1,5-a]pyrimidin-2-yl)(3,5-dimethylpiperazin-1-yl)methanone] | ≥ 2000

Structure (SMILES) | EC50 [nM]
COc1ccc(-c2ccnc3cc(C(=O)N4CCN(C5CC5)CC4)nn23)cc1OC [Compound 184, (4-cyclopropylpiperazin-1-yl)(7-(3,4-dimethoxyphenyl)pyrazolo [1,5-a]pyrimidin-2-yl)methanone] | 200 to 2000
COc1ccc(-c2ccnc3cc(C(=O)N[C@H]4CC[C@H](C(=O)N5CCN(c6ccccn6)CC5)CC4)nn23)cc1OC [Compound 342, 7-(3,4-dimethoxphenyl)-N-((1R,4R)-4-(4-(pyridin-2-yl)piperazine-1-carbonyl)cyclohexyl) pyrazolo[1,5-a] pyrimidine-2-carboxamide] | 200 to 2000
COc1ccc(-c2ccnc3cc(C(=O)Nc4ccc(N5CCCCC5)cc4)nn23)cc1OC [Compound 269, 7-(3,4-dimethoxyphenyl)-N-(4-(piperidin-1-yl)phenyl)pyrazolo [1,5-a]pyrimidine-2-carboxamide] | < 200
COc1ccc(-c2ccnc3cc(C(=O)Nc4ccc(C(=O)NCCCN(C)C)cc4)nn23)cc1OC [Compound 220, 7-(3,4-dimethoxyphenyl)-N-(4-((3-(dimethylamino)propyl)carbamoyl)phenyl) pyrazolo[1,5-a]pyrimidine-2-carboxamide] | ≥ 2000
COC(=O)c1ccc(NC(=O)c2cc3nccc(-c4ccc(OC)c(OC)c4)n3n2)cc1C [Compound 191, methyl 4-(7-(3,4-dimethoxyphenyl)pyrazolo [1,5-a]pyrimidine-2-carboxamido)-2-methylbenzoate] | < 200
COc1ccc(-c2ccnc3cc(C(=O)Nc4ccc(OCC(=O)O)cc4)nn23)cc1OC [Compound 35, 2-(4-(7-(3,4-dimethoxyphenyl)pyrazolo[1,5-a]pyrimidine-2-carboxamido)phenoxy)acetic acid] | ≥ 2000
COc1ccc(-c2ccnc3cc(C(=O)N4CCN(C(=O)c5ccccc5)C(C)(C)C4)nn23)cc1OC [Compound 211, (4-benzoyl-3,3-dimethylpiperazin-1-yl) (7-(3,4-dimethoxyphenyl)pyrazolo [1,5-a]pyrimidin-2-yl)methanone] | 200 to 2000
COc1ccc(-c2ccnc3cc(C(=O)Nc4ccc(C(=O)N5CCN(C)CC5)cn4)nn23)cc1OC [Compound 124, 7-(3,4-dimethoxyphenyl)-N-(5-(4-methylpiperazine-1-carbonyl)pyridin-2-yl)pyrazolo[1,5-a] pyrimidine-2-carboxamide] | < 200
CCCOC(=O)c1ccc(NC(=O)c2cc3nccc(-c4ccc(OC)c(OC)c4)n3n2)cc1 [Compound 335, propyl 4-(7-(3,4-dimethoxyphenyl)pyrazolo [1,5-a]pyrimidine-2-carboxamido)benzoate] | < 200
COc1ccc(-c2ccnc3cc(C(=O)N4CCN(C(C)C)CC4)nn23)cc1OC [Compound 179, (7-(3,4-dimethoxyphenyl)pyrazolo[1,5-a]pyrimidin-2-yl)(4-isopropylpiperazin-1-yl)methanone] | ≥ 2000
CCOc1ccc(NC(=O)c2cc3nccc(-c4ccccc4)n3n2)cc1 [Compound 300, N-(4-ethoxyphenyl)-7-phenylpyrazolo[1,5-a]pyrimidine-2-carboxamide] | ≥ 2000
COc1ccc(-c2ccnc3cc(C(=O)N(C)c4ccc(C(=O)N5CCN(C)CC5)cc4)nn23)cc1OC [Compound 248, 7-(3,4-dimethoxyphenyl)-N-methyl-N-(4-(4-methylpiperazine-1-carbonyl)phenyl)pyrazolo [1,5-a]pyrimidine-2-carboxamide] | ≥ 2000
COc1ccc(-c2ccnc3cc(C(=O)Nc4ccc(C(=O)N5CCN(C)CC5)c(OC)c4)nn23)cc1OC [Compound 218, 7-(3,4-dimethoxyphenyl)-N-(3-methoxy-4-(4-methylpiperazine-1-carbonyl)phenyl)pyrazolo [1,5-a]pyrimidine-2-carboxamide] | ≥ 2000
CCC[C@H]1CN(C(=O)c2cc3nccc(-c4ccc(OC)c(OC)c4)n3n2)CCN1C(=O)c1ccccc1 [Compound 377, (S)-(4-benzoyl-3-propylpiperazin-1-yl) (7-(3,4-dimethoxyphenyl)pyrazolo [1,5-a]pyrimidin-2-yl)methanone] | < 200
COc1ccc(-c2ccnc3cc(C(=O)N4CCN(C(=O)c5ccccc5)[C@@H](C(C)C)C4)nn23)cc1OC [Compound 376, (S)-(4-benzoyl-3-isopropylpiperazin-1-yl)(7-(3,4-dimethoxyphenyl)pyrazolo[1,5-a]pyrimidin-2-yl)methanone] | < 200
COc1ccc(-c2ccnc3cc(C(=O)Nc4ccc(C(=O)N5CCN(C)[C@@H](C)C5)cc4)nn23)cc1OC [Compound 195, (S)-7-(3,4-dimethoxyphenyl)-N-(4-(3,4-dimethylpiperazine-1-carbonyl)phenyl)pyrazolo [1,5-a]pyrimidine-2-carboxamide] | 200 to 2000
